# Experiment: recombinant UMI read abundance after kanamycin selection (control-corrected) (log10(CPM+1)); higher = more efficient recombination; extreme values may be limits of the assay; sequences stand for … in AGTGCAGAGAAAATCGGCCAGTTTTCTCTGCCTGCAGTCCGCATGCCGTGGGACCCCTTGGGTTCTAACCTGTTGCCTAGATTTATGCAGCGGACTGCCTTTCTCCCAAAGTGATAAACCGG…AGGTTGGTTTCACT; site = the 11-nt donor
# Procedure, shortened: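 After plating on IPTG (0.07 mM) plus kanamycin, or unselected, in two replicates, recombinant UMIs were PCR-amplified across the donor–target junction and sequenced. The cells were Escherichia coli co-electroporated with a UMI-tagged donor and donor-binding-loop pair library and a target plasmid with a fixed target and T7-inducible IS621 bridge recombinase. Values are log10(CPM+1), with CPM averaged over replicates and scaled by control-derived factors.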
row,Sequence,recombinant UMI read abundance (log10)
1,CTCATATCATGGACCGGTTTTCCCGGTAATCCGTATTTGTC (site CACATATCTGA),0.65
2,CTCATATCATGGACCGGTTTTCCCGGTAATCCGTATTTGTC (site CCCATATCTGA),0.718
3,CTCATATCATGGACCGGTTTTCCCGGTAATCCGTATTTGTC (site CGCATATCTGA),0
4,CTCATATCATGGACCGGTTTTCCCGGTAATCCGTATTTGTC (site CTCATATCTGA),1.5
5,CTCATCGCATGGACCGGTTTTCCCGGTAATCCGTATTTGCC (site CTCATCGCTGG),0.346
6,CTCCACACATGGACCGGTTTTCCCGGTAATCCGTATTTGGG (site CTCCACACTCC),0.0377
7,CTCCAGCCATGGACCGGTTTTCCCGGTAATCCGTATTTGAG (site CTCCAGCCTCT),0.0271
8,CTCCCCACATGGACCGGTTTTCCCGGTAATCCGTATTTGAG (site CTCCCAACTCT),0.00953
9,CTCCCCACATGGACCGGTTTTCCCGGTAATCCGTATTTGAG (site CTCCCCACTCT),0.891
10,CTCCCCACATGGACCGGTTTTCCCGGTAATCCGTATTTGAG (site CTCCCGACTCT),0.0121
11,CTCCCCACATGGACCGGTTTTCCCGGTAATCCGTATTTGAG (site CTCCCTACTCT),0
12,CTCCCTACATGGACCGGTTTTCCCGGTAATCCGTATTTGCG (site CTCCCTACTCA),0.397
13,CTCCCTACATGGACCGGTTTTCCCGGTAATCCGTATTTGCG (site CTCCCTACTCC),0.0203
14,CTCCCTACATGGACCGGTTTTCCCGGTAATCCGTATTTGCG (site CTCCCTACTCG),0.488
15,CTCCCTACATGGACCGGTTTTCCCGGTAATCCGTATTTGCG (site CTCCCTACTCT),0.55
16,CTCCGGCCATGGACCGGTTTTCCCGGTAATCCGTATTTGCT (site CTCCGGCCTAG),0.589
17,CTCCGTACATGGACCGGTTTTCCCGGTAATCCGTATTTGAG (site CTCCATACTCT),0.649
18,CTCCGTACATGGACCGGTTTTCCCGGTAATCCGTATTTGAG (site CTCCCTACTCT),0.0126
19,CTCCGTACATGGACCGGTTTTCCCGGTAATCCGTATTTGAG (site CTCCGTACTCT),0.509
20,CTCCGTACATGGACCGGTTTTCCCGGTAATCCGTATTTGAG (site CTCCTTACTCT),0.0158
21,CTCCTCCCATGGACCGGTTTTCCCGGTAATCCGTATTTGAC (site CTCCTCCCTGT),1.49
22,CTCCTCGCATGGACCGGTTTTCCCGGTAATCCGTATTTGAA (site CTCCTCGCTTT),1.06
23,CTCCTCTCATGGACCGGTTTTCCCGGTAATCCGTATTTGTA (site CTACTCTCTTA),0.176

row,Sequence,recombinant UMI read abundance (log10)
1,CTCCTCTCATGGACCGGTTTTCCCGGTAATCCGTATTTGTA (site CTCCTCTCTTA),2.45
2,CTCCTCTCATGGACCGGTTTTCCCGGTAATCCGTATTTGTA (site CTGCTCTCTTA),0.0102
3,CTCCTCTCATGGACCGGTTTTCCCGGTAATCCGTATTTGTA (site CTTCTCTCTTA),0
4,CTCCTTGCATGGACCGGTTTTCCCGGTAATCCGTATTTGTA (site CTCCTTGCTTA),0
5,CTCGAATCATGGACCGGTTTTCCCGGTAATCCGTATTTGAC (site CTAGTATCTGT),0.00618
6,CTCGAATCATGGACCGGTTTTCCCGGTAATCCGTATTTGAC (site CTCGAATCTGT),1.76
7,CTCGACACATGGACCGGTTTTCCCGGTAATCCGTATTTGCT (site CTCAACACTAG),1.72
8,CTCGACACATGGACCGGTTTTCCCGGTAATCCGTATTTGCT (site CTCCACACTAG),1.93
9,CTCGACACATGGACCGGTTTTCCCGGTAATCCGTATTTGCT (site CTCGACACTAG),2.25
10,CTCGACACATGGACCGGTTTTCCCGGTAATCCGTATTTGCT (site CTCTACACTAG),2.03
11,CTCGCACCATGGACCGGTTTTCCCGGTAATCCGTATTTGTC (site CTCGCACCTGA),0
12,CTCGTCTCATGGACCGGTTTTCCCGGTAATCCGTATTTGAC (site CTAGTATCTGT),0
13,CTCGTCTCATGGACCGGTTTTCCCGGTAATCCGTATTTGAC (site CTCGTCTCTGT),1.54
14,CTCTACACATGGACCGGTTTTCCCGGTAATCCGTATTTGCA (site CTCTACACTAG),1.37
15,CTCTACACATGGACCGGTTTTCCCGGTAATCCGTATTTGCA (site CTCTACACTCG),0.499
16,CTCTACACATGGACCGGTTTTCCCGGTAATCCGTATTTGCA (site CTCTACACTGG),1.53
17,CTCTACACATGGACCGGTTTTCCCGGTAATCCGTATTTGCA (site CTCTACACTTG),2.37
18,CTCTACACATGGACCGGTTTTCCCGGTAATCCGTATTTGGT (site CTCTACACTAA),0.0359
19,CTCTACACATGGACCGGTTTTCCCGGTAATCCGTATTTGGT (site CTCTACACTAC),0.0415
20,CTCTACACATGGACCGGTTTTCCCGGTAATCCGTATTTGGT (site CTCTACACTAG),0.21
21,CTCTACACATGGACCGGTTTTCCCGGTAATCCGTATTTGGT (site CTCTACACTAT),0.203
22,CTCTAGTCATGGACCGGTTTTCCCGGTAATCCGTATTTGTG (site CTCTAGTCTCA),1.99
23,CTCTTCACATGGACCGGTTTTCCCGGTAATCCGTATTTGCT (site CTCTACACTAG),1.29

row,Sequence,recombinant UMI read abundance (log10)
1,CTCTTCACATGGACCGGTTTTCCCGGTAATCCGTATTTGCT (site CTCTCCACTAG),1.14
2,CTCTTCACATGGACCGGTTTTCCCGGTAATCCGTATTTGCT (site CTCTGCACTAG),0
3,CTCTTCACATGGACCGGTTTTCCCGGTAATCCGTATTTGCT (site CTCTTCACTAG),2.46
4,CTCTTCTCATGGACCGGTTTTCCCGGTAATCCGTATTTGGG (site CACTTCTCTCC),0
5,CTCTTCTCATGGACCGGTTTTCCCGGTAATCCGTATTTGGG (site CCCTTCTCTCC),0.0128
6,CTCTTCTCATGGACCGGTTTTCCCGGTAATCCGTATTTGGG (site CGCTTCTCTCC),0.014
7,CTCTTCTCATGGACCGGTTTTCCCGGTAATCCGTATTTGGG (site CTCTTCTCTCC),0
8,CTCTTGGCATGGACCGGTTTTCCCGGTAATCCGTATTTGAA (site CTCTTGGCTTT),1.08
9,CTCTTTGCATGGACCGGTTTTCCCGGTAATCCGTATTTGAC (site CTCTTTGCTGT),0.503
10,CTGAACCCATGGACCGGTTTTCCCGGTAATCCGTATTTGTT (site CGGAATCCTAA),0.0138
11,CTGAACCCATGGACCGGTTTTCCCGGTAATCCGTATTTGTT (site CTGAACCCTAA),0.285
12,CTGAACTCATGGACCGGTTTTCCCGGTAATCCGTATTTGCG (site CTGAACTCTCG),2.99
13,CTGAATCCATGGACCGGTTTTCCCGGTAATCCGTATTTGGT (site CGGAATCCTAA),0.0153
14,CTGAATCCATGGACCGGTTTTCCCGGTAATCCGTATTTGGT (site CTGAATCCTAC),0.615
15,CTGACATCATGGACCGGTTTTCCCGGTAATCCGTATTTGCT (site CAGACATCTAG),1.06
16,CTGACATCATGGACCGGTTTTCCCGGTAATCCGTATTTGCT (site CCGACATCTAG),1.39
17,CTGACATCATGGACCGGTTTTCCCGGTAATCCGTATTTGCT (site CGGACATCTAG),0.00554
18,CTGACATCATGGACCGGTTTTCCCGGTAATCCGTATTTGCT (site CTGACATCTAG),2.47
19,CTGACGACATGGACCGGTTTTCCCGGTAATCCGTATTTGTT (site CTGACGACTAA),0.0946
20,CTGACTCCATGGACCGGTTTTCCCGGTAATCCGTATTTGTT (site CGGAATCCTAA),0.00356
21,CTGACTCCATGGACCGGTTTTCCCGGTAATCCGTATTTGTT (site CTGACTCCTAA),0.838
22,CTGATCCCATGGACCGGTTTTCCCGGTAATCCGTATTTGTG (site CTGATCCCTCA),0.794

# — the supplement of paper PMC11208160
